Several values for one entry are separate records, joined by “and”; a condition that tells them apart may be missing. Equal values may be shown once. Toxic doses and inconclusive results are not listed. Rule as the data show it: active = T/C of 150% or more; inactive = T/C below 125%.
Tested on: L1210 leukemia ip in BDF1 mice, survival T/C
Experiment: NCI In Vivo Anticancer Drug Screen. Data for tumor model L1210 Leukemia (intraperitoneal) in B6D2F1 (BDF1) mice
Conditions: endpoint: mean survival time, higher = longer survival
Method in brief: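 In this screen, tumor-bearing mice given compound are compared to those given vehicle, and their survival values are reported as a treated-to-control quotient.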

[1] = dose: 100.0 mg/kg/injection, schedule: Q04DX003 (ip), vehicle: saline
[2] = dose: 200.0 mg/kg/injection, schedule: Q04DX003 (ip), vehicle: saline
[3] = dose: 100.0 mg/kg/injection, schedule: Q01DX009 (ip), vehicle: saline with Tween-80
[4] = dose: 200.0 mg/kg/injection, schedule: Q01DX009 (ip), vehicle: saline with Tween-80
[5] = dose: 100.0 mg/kg/injection, schedule: Q01DX001 (ip), vehicle: Klucel (hydroxypropylcellulose) (HPC)
[6] = dose: 200.0 mg/kg/injection, schedule: Q01DX001 (ip), vehicle: Klucel (hydroxypropylcellulose) (HPC)
[7] = dose: 25.0 mg/kg/injection, schedule: Q04DX003 (ip), vehicle: saline with Tween-80
[8] = dose: 50.0 mg/kg/injection, schedule: Q04DX003 (ip), vehicle: saline with Tween-80
[9] = dose: 100.0 mg/kg/injection, schedule: Q04DX003 (ip), vehicle: saline with Tween-80
[10] = dose: 100.0 mg/kg/injection, schedule: Q01DX009 (ip), vehicle: Klucel (hydroxypropylcellulose) (HPC)
[11] = dose: 100.0 mg/kg/injection, schedule: Q04DX003 (ip), vehicle: Klucel (hydroxypropylcellulose) (HPC)
[12] = dose: 200.0 mg/kg/injection, schedule: Q01DX009 (ip), vehicle: Klucel (hydroxypropylcellulose) (HPC)
[13] = dose: 200.0 mg/kg/injection, schedule: Q04DX003 (ip), vehicle: Klucel (hydroxypropylcellulose) (HPC)
[14] = dose: 400.0 mg/kg/injection, schedule: Q01DX009 (ip), vehicle: Klucel (hydroxypropylcellulose) (HPC)
[15] = dose: 400.0 mg/kg/injection, schedule: Q04DX003 (ip), vehicle: Klucel (hydroxypropylcellulose) (HPC)
[16] = dose: 400.0 mg/kg/injection, schedule: Q01DX001 (ip), vehicle: Klucel (hydroxypropylcellulose) (HPC)
[17] = dose: 100.0 mg/kg/injection, schedule: Q01DX001 (ip), vehicle: saline
[18] = dose: 200.0 mg/kg/injection, schedule: Q01DX001 (ip), vehicle: saline
[19] = dose: 200.0 mg/kg/injection, schedule: Q04DX003 (ip), vehicle: saline with Tween-80

Measured: T/C

CC(=O)NC(C)(C)CC(C)(C)C
inactive: dose: 12.5 mg/kg/injection, schedule: Q01DX009 (ip), vehicle: Klucel (hydroxypropylcellulose) (HPC) 99 % of control | dose: 12.5 mg/kg/injection, schedule: Q04DX003 (ip), vehicle: Klucel (hydroxypropylcellulose) (HPC) 98 % of control | dose: 25.0 mg/kg/injection, schedule: Q01DX001 (ip), vehicle: saline with Tween-80 98 % of control | dose: 25.0 mg/kg/injection, schedule: Q01DX009 (ip), vehicle: Klucel (hydroxypropylcellulose) (HPC) 101 % of control | dose: 25.0 mg/kg/injection, schedule: Q04DX003 (ip), vehicle: Klucel (hydroxypropylcellulose) (HPC) 96 % of control | dose: 50.0 mg/kg/injection, schedule: Q01DX001 (ip), vehicle: saline with Tween-80 103 % of control | dose: 50.0 mg/kg/injection, schedule: Q04DX003 (ip), vehicle: Klucel (hydroxypropylcellulose) (HPC) 93 % of control | dose: 100.0 mg/kg/injection, schedule: Q01DX001 (ip), vehicle: saline with Tween-80 105 % of control and 119 % of control

CCC(C)C(NC(=O)C1CSC(C)(C)N1C=O)C(=O)OC (configuration not stated)
inactive: [1] 106 % of control | [2] 97 % of control | dose: 400.0 mg/kg/injection, schedule: Q04DX003 (ip), vehicle: saline 103 % of control

Cc1cccnc1N1CCNC1=O
inactive: dose: 25.0 mg/kg/injection, schedule: Q04DX003 (ip), vehicle: saline 92 % of control | dose: 50.0 mg/kg/injection, schedule: Q04DX003 (ip), vehicle: saline 103 % of control | [1] 96 % of control and 117 % of control

CCCC(Cl)C(=O)Nc1cccc(O)c1 (configuration not stated)
inactive: [3] 91 % of control | [4] 91 % of control

CCC(=O)N(N=O)c1ccccc1
inactive: dose: 18.8 mg/kg/injection, schedule: Q01DX001 (ip), vehicle: saline 91 % of control

CCOC(=O)c1ncc(Cl)cc1N
inactive: [5] 106 % of control | [6] 108 % of control

CCCC(=O)OC(=O)N/C=C/NC(=O)OC(=O)CCC
inactive: dose: 100.0 mg/kg/injection, schedule: Q01DX001 (ip), vehicle: alcohol 103 % of control | dose: 200.0 mg/kg/injection, schedule: Q01DX001 (ip), vehicle: alcohol 103 % of control | dose: 400.0 mg/kg/injection, schedule: Q01DX001 (ip), vehicle: alcohol 94 % of control

Nc1nc2ccccc2c(=O)[nH]1
inactive: [7] 110 % of control | [8] 96 % of control | [9] 102 % of control and 106 % of control

Cc1ccc(S(=O)(=O)OCCCCCCCCCCCCCCOS(=O)(=O)c2ccc(C)cc2)cc1
inactive: [10] 97 % of control | [11] 97 % of control | [12] 98 % of control | [13] 96 % of control | [14] 106 % of control | [15] 92 % of control

COc1ccc(N=NS(=O)O)cc1
inactive: [5] 98 % of control | [6] 97 % of control | [16] 95 % of control

CCOC(=O)C1C2CCCCC21 (configuration not stated)
inactive: [17] 102 % of control | [18] 96 % of control

O=C(Oc1ccccc1)c1cc(Br)c2ccccc2c1O
inactive: [3] 96 % of control | [11] 89 % of control | [4] 95 % of control | [13] 97 % of control | dose: 400.0 mg/kg/injection, schedule: Q01DX009 (ip), vehicle: saline with Tween-80 93 % of control | [15] 87 % of control

O/N=C/c1ccc(O)cc1
inactive: dose: 50.0 mg/kg/injection, schedule: Q01DX001 (ip), vehicle: saline 96 % of control | [17] 108 % of control | [18] 102 % of control

Clc1ccc(SCN(CSc2ccc(Cl)cc2)Cc2ccccc2)cc1
inactive: [17] 91 % of control | [18] 90 % of control

O=C1/C(=C/c2c(Cl)cccc2Cl)CCC/C1=C\c1c(Cl)cccc1Cl
inactive: [10] 104 % of control | [11] 111 % of control | [12] 108 % of control | [13] 101 % of control | [14] 90 % of control | [15] 101 % of control

CC(C)=C1C2CCC1NN2
inactive: dose: 50.0 mg/kg/injection, schedule: Q01DX001 (ip), vehicle: Klucel (hydroxypropylcellulose) (HPC) 108 % of control

O=C(O)C1C2C=CC(C2)C1C(=O)Nc1ccccc1 (configuration not stated)
inactive: [9] 106 % of control | [19] 96 % of control | dose: 400.0 mg/kg/injection, schedule: Q04DX003 (ip), vehicle: saline with Tween-80 101 % of control

CCCCCCCCCC(=O)NC(=S)Nc1ccc(Br)cc1
inactive: [5] 93 % of control | [10] 93 % of control and 98 % of control | dose: 100.0 mg/kg/injection, schedule: Q04DX002 (ip), vehicle: Klucel (hydroxypropylcellulose) (HPC) 98 % of control and 91 % of control | [11] 92 % of control | [6] 91 % of control | [12] 91 % of control | dose: 200.0 mg/kg/injection, schedule: Q04DX002 (ip), vehicle: Klucel (hydroxypropylcellulose) (HPC) 96 % of control and 88 % of control | [13] 94 % of control | [16] 94 % of control | dose: 400.0 mg/kg/injection, schedule: Q04DX002 (ip), vehicle: Klucel (hydroxypropylcellulose) (HPC) 96 % of control and 88 % of control | [15] 102 % of control

CCOc1ccc(Nc2cc([N+](=O)[O-])ccc2C(=O)O)cc1
inactive: [7] 101 % of control | dose: 50.0 mg/kg/injection, schedule: Q01DX009 (ip), vehicle: saline with Tween-80 103 % of control | [8] 95 % of control | [3] 109 % of control | [9] 107 % of control | [4] 98 % of control | [19] 93 % of control

CCOC(=O)C1(C)CCCC1=O (configuration not stated)
inactive: dose: 100.0 mg/kg/injection, schedule: Q01DX009 (ip), vehicle: saline sonified 94 % of control | dose: 200.0 mg/kg/injection, schedule: Q01DX009 (ip), vehicle: saline sonified 97 % of control | dose: 400.0 mg/kg/injection, schedule: Q01DX009 (ip), vehicle: saline sonified 95 % of control

CC(C)(C)C(=O)CC(=O)C(C)(C)C.CC(C)(C)C(=O)CC(=O)C(C)(C)C.CC(C)(C)C(=O)CC(=O)C(C)(C)C.CC(C)(C)C(=O)CC(=O)C(C)(C)C.[Hf]
inactive: [10] 100 % of control | [11] 97 % of control | [12] 100 % of control | [13] 97 % of control | [14] 100 % of control | [15] 100 % of control

CC1(Br)OC(=O)C(C)(Br)OC1=O (configuration not stated)
inactive: [1] 96 % of control | [2] 96 % of control

CCN(CC)CCCNC1=C(Cl)C(=O)c2ccccc2C1=O
inactive: dose: 25.0 mg/kg/injection, schedule: Q01DX009 (ip), vehicle: saline with Tween-80 95 % of control

Nc1ccn(C2OC(CO)C(OC3OC4COC(c5ccccc5)OC4C(O)C3O)C(O)C2O)c(=O)n1 (configuration not stated)
inactive: dose: 22.5 mg/kg/injection, schedule: Q01DX001 (ip), vehicle: carboxymethylcellulose (CMC) 105 % of control | dose: 45.0 mg/kg/injection, schedule: Q01DX001 (ip), vehicle: carboxymethylcellulose (CMC) 100 % of control | dose: 90.0 mg/kg/injection, schedule: Q01DX001 (ip), vehicle: carboxymethylcellulose (CMC) 116 % of control | dose: 180.0 mg/kg/injection, schedule: Q01DX001 (ip), vehicle: carboxymethylcellulose (CMC) 97 % of control

Cc1ccc(S(=O)(=O)N2CCc3ccccc3C(=O)C2Br)cc1 (configuration not stated)
inactive: dose: 100.0 mg/kg/injection, schedule: Q01DX009 (ip), vehicle: saline 97 % of control | dose: 200.0 mg/kg/injection, schedule: Q01DX009 (ip), vehicle: saline 94 % of control | dose: 400.0 mg/kg/injection, schedule: Q01DX009 (ip), vehicle: saline 86 % of control

CN(CCO)N=Nc1ccccc1
inactive: dose: 6.0 mg/kg/injection, schedule: Q01DX009 (ip), vehicle: other 105 % of control | dose: 12.0 mg/kg/injection, schedule: Q01DX009 (ip), vehicle: other 96 % of control | dose: 12.5 mg/kg/injection, schedule: Q01DX009 (ip), vehicle: other 112 % of control | dose: 18.0 mg/kg/injection, schedule: Q01DX009 (ip), vehicle: other 88 % of control | dose: 25.0 mg/kg/injection, schedule: Q01DX009 (ip), vehicle: other 109 % of control

CC(=O)OCCC/C(=C\c1c2ccccc2cc2ccccc12)[N+](=O)[O-]
inactive: dose: 100.0 mg/kg/injection, schedule: Q01DX001 (ip), vehicle: carboxymethylcellulose (CMC) 94 % of control | dose: 200.0 mg/kg/injection, schedule: Q01DX001 (ip), vehicle: carboxymethylcellulose (CMC) 94 % of control | dose: 400.0 mg/kg/injection, schedule: Q01DX001 (ip), vehicle: carboxymethylcellulose (CMC) 96 % of control

Reference: PubChem BioAssay AID248 (DTP/NCI, 2004)
